Laboratory results published in the supplement of paper PMC11061612.

Key:
Experiment in all cases: Bliss excess, mean over the matrix (fraction); higher = more synergy
[1] = tested on: MHH-PREB-1 (B-Cell Non-Hodgkin's Lymphoma)
Outline: (§1)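 Cell lines grown in DMEM/F12 or RPMI with 10% FBS were plated in 1536-well plates and held 24 hours at 37°C, 5% CO2 before 72 hours of exposure to two-drug dose matrices, with DMSO typically at 0.2%. CellTiter-Glo 2.0 luminescence gave viability, which was converted to inhibition. Vehicle wells were set to 0 and blank wells to 1. Combination Emax is the second-highest inhibition in the matrix, and Bliss excess is the observed combination effect minus the expected EA + EB − EA·EB, where EA and EB are the single-agent effects.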

[2] = tested on: UMC-11 (Other Solid Carcinomas)
Outline: as §1

Mewo (Melanoma) = tested on: Mewo (Melanoma)
Outline: as §1

[3] = tested on: RT-112 (Bladder Carcinoma)
Outline: as §1

NCI-H2461 (Mesothelioma) = tested on: NCI-H2461 (Mesothelioma)
Outline: as §1

[4] = tested on: RKO (Colorectal Carcinoma)
Outline: as §1

[5] = tested on: SW1116 (Colorectal Carcinoma)
Outline: as §1

[6] = tested on: LoVo (Colorectal Carcinoma)
Outline: as §1

HMV-II (Melanoma) = tested on: HMV-II (Melanoma)
Outline: as §1

[7] = tested on: TE-4 (Esophageal Squamous Cell Carcinoma)
Outline: as §1

[8] = tested on: K5 (Thyroid Gland Carcinoma)
Outline: as §1

[9] = tested on: 639-V (Bladder Carcinoma)
Outline: as §1

NCI-H28 (Mesothelioma) = tested on: NCI-H28 (Mesothelioma)
Outline: as §1

[10] = tested on: Hs-633T (Other Solid Carcinomas)
Outline: as §1

[11] = tested on: SUP-T1 (T-Lymphoblastic Leukemia)
Outline: as §1

[12] = tested on: HARA (Squamous Cell Lung Carcinoma)
Outline: as §1

[13] = tested on: HDLM-2 (Hodgkin's Lymphoma)
Outline: as §1

NB14 (Neuroblastoma) = tested on: NB14 (Neuroblastoma)
Outline: as §1

[14] = tested on: HCC-15 (Squamous Cell Lung Carcinoma)
Outline: as §1

[15] = tested on: SU-DHL-6 (B-Cell Non-Hodgkin's Lymphoma)
Outline: as §1

Row | Compound | Bliss excess [1] | Bliss excess [2] | Bliss excess (Mewo (Melanoma)) | Bliss excess [3] | Bliss excess (NCI-H2461 (Mesothelioma)) | Bliss excess [4] | Bliss excess [5] | Bliss excess [6] | Bliss excess (HMV-II (Melanoma)) | Bliss excess [7] | Bliss excess [8] | Bliss excess [9] | Bliss excess (NCI-H28 (Mesothelioma)) | Bliss excess [10] | Bliss excess [11] | Bliss excess [12] | Bliss excess [13] | Bliss excess (NB14 (Neuroblastoma)) | Bliss excess [14] | Bliss excess [15]
1 | C=CCn1c(=O)c2cnc(Nc3ccc(N4CCN(C)CC4)cc3)nc2n1-c1cccc(C(C)(C)O)n1 [AZD1775] + O=C(c1cc(Cc2n[nH]c(=O)c3ccccc23)ccc1F)N1CCN(C(=O)C2CC2)CC1 [Olaparib] (first compound max 1 µM, partner max 10 µM) | -0.0311 | 0.0135 | -0.0237 | 0.0461 | -0.0561 | -0.0119 | -0.0069 | -0.0313 | -0.0279 | 0.0271 | -0.0175 | 0.0085 | -0.0568 | -0.0188 | -0.017 | -0.0325 | -0.0536 | -0.0306 | -0.0004 | -0.0222
2 | CN(CCO)CC[C@H](CSc1ccccc1)Nc1ccc(S(=O)(=O)NC(=O)c2ccc(N3CCC([C@@H](O)c4ccccc4-c4ccc(Cl)cc4)CC3)cc2)cc1S(=O)(=O)C(F)(F)F [AZD4320] + C1CN(CCC1(C(=O)N[C@@H](CCO)C2=CC=C(C=C2)Cl)N)C3=NC=NC4=C3C=CN4 [Capivasertib] (first compound max 1 µM, 7x7, partner max 3 µM) | -0.029 | -0.0908 | -0.0262 | -0.039 | -0.0564 | -0.0191 | -0.0612 | -0.071 | -0.0431 | -0.0317 | -0.0525 | -0.0503 | -0.0821 | -0.0193 | -0.0639 | -0.0268 | -0.0284 | 0.0472 | -0.0082 | 0.0292
3 | CC1(C)CCC(CN2CCN(c3ccc(C(=O)NS(=O)(=O)c4ccc(NCC5CCOCC5)c([N+](=O)[O-])c4)c(Oc4cnc5[nH]ccc5c4)c3)CC2)=C(c2ccc(Cl)cc2)C1 [Venetoclax] + Cc1cc2ncnn2cc1Nc1ncc2c(n1)n(C1CCOCC1)c(=O)n2C [AZD7648] (first compound max 1 µM, 7x7, partner max 10 µM) | 0.0028 | -0.0465 | -0.0181 | 0.0066 | -0.0954 | -0.0396 | -0.0232 | -0.0526 | -0.0407 | -0.0106 | -0.103 | -0.0501 | -0.0166 | -0.0154 | -0.0109 | -0.03 | 0.0551 | -0.0033 | -0.0033 | 0.049
4 | COc1cccc(OCCCN)c1-c1cc(Nc2cnc(C#N)cn2)n[nH]1 [Prexasertib] + C=CCn1c(=O)c2cnc(Nc3ccc(N4CCN(C)CC4)cc3)nc2n1-c1cccc(C(C)(C)O)n1 [AZD1775] (first compound max 1 µM, partner max 1 µM) | 0.0729 | 0.0712 | 0.0641 | 0.119 | -0.0573 | 0.0521 | 0.0689 | 0.0269 | 0.0779 | 0.0905 | 0.0807 | 0.178 | -0.0145 | 0.0796 | -0.0504 | 0.075 | -0.0404 | 0.0486 | 0.0293 | 0.25
5 | Cc1cc2ncnn2cc1Nc1ncc2c(n1)n(C1CCOCC1)c(=O)n2C [AZD7648] + C=CCn1c(=O)c2cnc(Nc3ccc(N4CCN(C)CC4)cc3)nc2n1-c1cccc(C(C)(C)O)n1 [AZD1775] (first compound max 10 µM, partner max 1 µM) | 0.028 | -0.0202 | 0.0455 | 0.0239 | -0.0524 | -0.032 | -0.0172 | -0.0658 | -0.0714 | -0.079 | 0.0433 | 0.049 | 0.0291 | -0.0333 | 0.0169 | -0.0542 | -0.0387 | 0.0014 | 0.0339 | -0.0816
6 | Cn1cnc2c(F)c(Nc3ccc(Br)cc3Cl)c(C(=O)NOCCO)cc21 [Selumetinib] + CCN(CCO)CCCOc1ccc2c(Nc3cc(CC(=O)Nc4cccc(F)c4)[nH]n3)ncnc2c1 [AZD2811] (first compound max 10 µM, 7x7, partner max 1 µM) | -0.0203 | -0.0446 | 0.0389 | -0.0741 | -0.0026 | 0.088 | 0.0021 | 0.0139 | -0.0477 | -0.0273 | 0.0018 | -0.0438 | -0.0745 | 0.0395 | 0.0328 | 0.0522 | -0.0267 | -0.0491 | -0.03 | 0.0923
7 | COc1nnc2ccc(N3CCC(c4ccc(OCCN5CCN(C)C(=O)[C@H]5C)cc4)CC3)nn12 [AZD5153] + CCN(CCO)CCCOc1ccc2c(Nc3cc(CC(=O)Nc4cccc(F)c4)[nH]n3)ncnc2c1 [AZD2811] (first compound max 1 µM, 7x7, partner max 1 µM) | 0.0074 | -0.123 | -0.0578 | -0.0595 | -0.0421 | -0.0096 | -0.0632 | -0.0623 | -0.0481 | -0.0116 | -0.0485 | -0.063 | -0.0415 | -0.0285 | 0.0027 | -0.0548 | 0.0003 | -0.0546 | -0.0646 | -0.0215
8 | CN(C)CCCOc1ccc(-c2ccc3ncc4c(c3c2)n(C2CCOCC2)c(=O)n4C)cn1 [AZD0156] + C[C@@H]1COCCN1C2=NC(=NC(=C2)C3(CC3)[S@](=N)(=O)C)C4=C5C=CNC5=NC=C4 [AZD6738] (first compound max 1 µM, 7x7, partner max 10 µM) | 0.0147 | -0.0176 | -0.0365 | 0.0798 | -0.0664 | 0.0186 | -0.034 | -0.0191 | -0.0018 | 0.0507 | -0.0074 | 0.0109 | -0.0606 | 0.0537 | -0.0344 | 0.0257 | -0.0448 | -0.0448 | -0.0021 | 0.0136
9 | CN(C)CCCOc1ccc(-c2ccc3ncc4c(c3c2)n(C2CCOCC2)c(=O)n4C)cn1 [AZD0156] + C=CCn1c(=O)c2cnc(Nc3ccc(N4CCN(C)CC4)cc3)nc2n1-c1cccc(C(C)(C)O)n1 [AZD1775] (first compound max 1 µM, partner max 1 µM) | 0.0036 | -0.0358 | -0.05 | -0.0193 | -0.0451 | -0.0252 | -0.0336 | -0.0533 | -0.0182 | -0.0599 | -0.0003 | -0.0232 | -0.0066 | -0.007 | -0.0251 | -0.007 | -0.0554 | -0.0198 | -0.0346 | -0.0384
10 | COc1cccc(OCCCN)c1-c1cc(Nc2cnc(C#N)cn2)n[nH]1 [Prexasertib] + O=C(c1cc(Cc2n[nH]c(=O)c3ccccc23)ccc1F)N1CCN(C(=O)C2CC2)CC1 [Olaparib] (first compound max 1 µM, 7x7, partner max 10 µM) | -0.125 | 0.0014 | -0.0708 | -0.137 | -0.0891 | -0.0165 | -0.0415 | -0.129 | -0.0242 | 0.015 | -0.051 | 0.101 | -0.0613 | -0.0074 | -0.0966 | -0.0682 | -0.046 | -0.0553 | 0.0101 | 0.0089
11 | CC1(C)CCC(CN2CCN(c3ccc(C(=O)NS(=O)(=O)c4ccc(NCC5CCOCC5)c([N+](=O)[O-])c4)c(Oc4cnc5[nH]ccc5c4)c3)CC2)=C(c2ccc(Cl)cc2)C1 [Venetoclax] + C[C@@H]1COCCN1C2=NC(=NC(=C2)C3(CC3)[S@](=N)(=O)C)C4=C5C=CNC5=NC=C4 [AZD6738] (first compound max 1 µM, 7x7, partner max 10 µM) | 0.0046 | -0.0331 | -0.0285 | 0.0228 | -0.026 | -0.0796 | -0.0234 | -0.0637 | -0.0853 | -0.0337 | -0.0758 | -0.0323 | -0.059 | -0.0455 | -0.0098 | -0.0787 | 0.0068 | -0.0005 | -0.0296 | 0.0561
12 | CN(C)CCCOc1ccc(-c2ccc3ncc4c(c3c2)n(C2CCOCC2)c(=O)n4C)cn1 [AZD0156] + O=C(c1cc(Cc2n[nH]c(=O)c3ccccc23)ccc1F)N1CCN(C(=O)C2CC2)CC1 [Olaparib] (first compound max 3 µM, partner max 3 µM) | 0.0175 | 0.0204 | -0.0711 | 0.0239 | -0.0194 | 0.0736 | -0.0431 | 0.0346 | -0.0287 | 0.0387 | 0.0542 | 0.0535 | -0.0415 | 0.17 | 0.0598 | 0.0504 | 0.0319 | 0.218 | 0.136 | 0.125
13 | Cc1cc2ncnn2cc1Nc1ncc2c(n1)n(C1CCOCC1)c(=O)n2C [AZD7648] + C[C@@H]1COCCN1C2=NC(=NC(=C2)C3(CC3)[S@](=N)(=O)C)C4=C5C=CNC5=NC=C4 [AZD6738] (first compound max 10 µM, 7x7, partner max 10 µM) | 0.0336 | 0.0002 | -0.0217 | 0.0746 | -0.0188 | 0.0059 | 0.0285 | -0.0058 | 0.0134 | 0.054 | 0.0129 | 0.0317 | 0.081 | -0.0138 | 0.0052 | -0.0073 | -0.0357 | -0.0026 | 0.0093 | -0.0598
14 | COc1cccc(OCCCN)c1-c1cc(Nc2cnc(C#N)cn2)n[nH]1 [Prexasertib] + CCc1c2c(nc3ccc(O)cc13)-c1cc3c(c(=O)n1C2)COC(=O)[C@]3(O)CC [SN-38] (first compound max 1 µM, 7x7, partner max 0.3 µM) | 0.0153 | 0.0774 | 0.0881 | 0.104 | -0.114 | -0.0686 | 0.076 | -0.0727 | -0.0304 | 0.107 | -0.0708 | -0.0477 | -0.074 | -0.0609 | -0.152 | 0.0262 | -0.0701 | 0.0073 | 0.0659 | 0.157
15 | Cc1cc2ncnn2cc1Nc1ncc2c(n1)n(C1CCOCC1)c(=O)n2C [AZD7648] + O=C(c1cc(Cc2n[nH]c(=O)c3ccccc23)ccc1F)N1CCN(C(=O)C2CC2)CC1 [Olaparib] (first compound max 10 µM, 7x7, partner max 10 µM) | -0.026 | 0.0471 | -0.0885 | -0.0152 | -0.0601 | -0.0152 | -0.0421 | -0.0382 | -0.0181 | 0.0061 | -0.0159 | -0.0184 | -0.0378 | -0.0191 | -0.0488 | -0.0114 | -0.0558 | -0.0534 | -0.0059 | -0.0263
